From paper PMC9030254, “Target Hopping from Protein Kinases to PXR: Identification of Small-Molecule Protein Kinase Inhibitors as Selective Modulators of Pregnane X Receptor from TüKIC Library” (Cells, 2022)

Columns and labels:
[1] = target: T1, PXR interaction with coactivator SRC1 (Homo sapiens, UniProt O75469); assay: Mammalian two-hybrid coactivator interaction assay; format: cell-based; details: for effect on rifampicin-dependent recruitment of SRC1 by PXR: HepG2, 10 µM compound + 10 µM rifampicin; for induction of interaction of PXR with coactivator SRC1: HepG2, 10 µM, alone
T1 construct: VP16-PXR LBD(108–434); expressed in transfected cells; host or cells: HepG2
T1 sequence (O75469 108-434): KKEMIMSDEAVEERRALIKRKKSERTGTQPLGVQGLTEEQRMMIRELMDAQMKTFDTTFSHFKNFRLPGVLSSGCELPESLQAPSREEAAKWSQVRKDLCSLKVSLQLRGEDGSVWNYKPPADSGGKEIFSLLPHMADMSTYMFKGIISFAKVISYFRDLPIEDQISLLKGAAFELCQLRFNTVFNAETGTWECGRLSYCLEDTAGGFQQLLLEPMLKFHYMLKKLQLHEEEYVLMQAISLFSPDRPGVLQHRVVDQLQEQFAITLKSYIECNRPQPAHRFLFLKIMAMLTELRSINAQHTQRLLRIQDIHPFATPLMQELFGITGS
Description: In mammalian two-hybrid corepressor/coactivator interaction assays, per well 0.24 µg pGL4-G5, 0.01 µg pGL4.75[hRluc/CMV], 0.03 µg expression plasmid encoding VP16-AD/PXR LBD fusion, and 0.03 µg expression plasmids encoding GAL4-DBD/SRC1-RID or GAL4-DBD/SMRT-RID fusions, respectively, were used. For the SMRT corepressor interaction assay, additionally 0.015 µg of RXRα expression plasmid was included.

CAR1 = target: T2, CAR1 (Homo sapiens, UniProt Q14994); assay: Nuclear receptor selectivity reporter assay, CAR1; format: cell-based; details: HepG2, 10 µM
T2 construct: expressed in transfected cells; host or cells: HepG2
T2 sequence (Q14994 1-348 isoform Q14994-2): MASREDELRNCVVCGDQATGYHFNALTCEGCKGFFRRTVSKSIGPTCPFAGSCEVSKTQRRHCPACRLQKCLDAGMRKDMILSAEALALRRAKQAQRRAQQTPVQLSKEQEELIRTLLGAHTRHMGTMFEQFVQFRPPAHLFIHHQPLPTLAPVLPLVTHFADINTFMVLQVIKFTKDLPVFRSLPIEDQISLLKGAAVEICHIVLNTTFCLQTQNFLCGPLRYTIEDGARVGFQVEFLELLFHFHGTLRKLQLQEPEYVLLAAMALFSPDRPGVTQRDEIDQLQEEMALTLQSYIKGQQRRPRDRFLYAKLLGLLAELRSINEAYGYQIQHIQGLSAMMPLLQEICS
Description: (§1) For testing nuclear receptor selectivity and LBP-filled PXR mutant activation, transient batch transfection was conducted as above, but with HepG2 cells and the following plasmids, with amounts per well of 0.23–0.27 µg pGL4-CYP3A4(-7830Δ7208-364) or pGL3(DR3)3Tk (as reporter for VDR), 0.01 µg pMetLuc2control, and 0.03 µg either CAR1, CAR3, VDR, or PXR(S208W/S247W/C284W) expression plasmids. In addition, 0.03 µg RXRα expression plasmid was added to CAR3 transfections. Metridia luciferase activity was measured from 10 µL of medium supernatant after adding 100 µL Renilla luciferase assay solution.
(§2) Figure 6 Selectivity of novel PXR ligands within the NR1I group of nuclear receptors. HepG2 cells were transiently transfected with CYP3A4 reporter and expression plasmids encoding (A) CAR1 or (B) CAR3, or (C) direct repeat (DR3)3 reporter and expression plasmid encoding VDR. Cells were treated with 0.2% DMSO or 10 µM chemicals as indicated. 1α,25(OH)2D3 was used at 1 µM.

CAR3 = target: T3, CAR3 (Homo sapiens, UniProt Q14994, DEL233-236); assay: Nuclear receptor selectivity reporter assay, CAR3; format: cell-based; details: for impairment of ligand-induced activation of CAR3 by CITCO: HepG2, 10 µM compound + 10 µM CITCO
T3 construct: expressed in transfected cells; host or cells: HepG2
T3 sequence (Q14994 with tags, fused parts or gaps isoform Q14994-8 DEL233-236): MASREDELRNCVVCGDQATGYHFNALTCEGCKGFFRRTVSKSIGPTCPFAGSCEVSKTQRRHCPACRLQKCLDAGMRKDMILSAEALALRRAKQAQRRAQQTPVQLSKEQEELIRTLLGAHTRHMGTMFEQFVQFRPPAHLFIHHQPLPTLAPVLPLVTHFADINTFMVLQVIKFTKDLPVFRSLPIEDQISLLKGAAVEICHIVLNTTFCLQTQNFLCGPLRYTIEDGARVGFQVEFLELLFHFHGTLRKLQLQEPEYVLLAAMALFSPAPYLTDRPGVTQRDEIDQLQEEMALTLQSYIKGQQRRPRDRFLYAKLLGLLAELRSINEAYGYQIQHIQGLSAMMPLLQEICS
T3 sequence (P19793 1-462 partner): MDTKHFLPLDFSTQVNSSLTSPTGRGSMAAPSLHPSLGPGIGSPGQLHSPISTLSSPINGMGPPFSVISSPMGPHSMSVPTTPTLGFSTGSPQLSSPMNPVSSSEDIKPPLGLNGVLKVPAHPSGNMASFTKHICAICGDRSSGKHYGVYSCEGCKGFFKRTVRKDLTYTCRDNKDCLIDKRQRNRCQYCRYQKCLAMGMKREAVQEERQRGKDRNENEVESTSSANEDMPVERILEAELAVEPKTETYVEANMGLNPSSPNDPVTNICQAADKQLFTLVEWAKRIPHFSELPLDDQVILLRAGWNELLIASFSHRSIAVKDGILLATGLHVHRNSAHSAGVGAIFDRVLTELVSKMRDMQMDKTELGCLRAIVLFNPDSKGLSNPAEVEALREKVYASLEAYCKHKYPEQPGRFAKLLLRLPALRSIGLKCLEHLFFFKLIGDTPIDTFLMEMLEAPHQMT
Description: as §1, §2

VDR = target: T4, VDR (Homo sapiens, UniProt P11473); assay: Nuclear receptor selectivity reporter assay, VDR; format: cell-based; details: for reduction of ligand-induced VDR activation: HepG2, 10 µM compound + 1 µM 1α,25(OH)2D3
T4 construct: expressed in transfected cells; host or cells: HepG2
T4 sequence (P11473 1-427): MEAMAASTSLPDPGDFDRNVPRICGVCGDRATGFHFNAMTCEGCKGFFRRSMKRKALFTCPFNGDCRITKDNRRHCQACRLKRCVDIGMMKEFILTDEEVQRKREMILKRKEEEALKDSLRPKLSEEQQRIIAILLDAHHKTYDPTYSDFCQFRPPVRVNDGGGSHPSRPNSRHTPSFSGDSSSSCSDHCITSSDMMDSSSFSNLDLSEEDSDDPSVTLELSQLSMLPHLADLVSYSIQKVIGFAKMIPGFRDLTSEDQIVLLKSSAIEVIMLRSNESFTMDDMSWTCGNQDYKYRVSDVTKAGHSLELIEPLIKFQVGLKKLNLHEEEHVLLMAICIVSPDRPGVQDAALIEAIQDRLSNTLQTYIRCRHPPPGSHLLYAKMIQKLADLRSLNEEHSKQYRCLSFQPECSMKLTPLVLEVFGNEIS
Description: as §1, §2

CYP3A4 = assay: PXR target gene mRNA expression in LS174T cells (RT-qPCR); details: 10 µM single treatment, 48 h (109) or 72 h (73, 100)
Description: In chemical treatments, phenol red-free DMEM was used, and regular FBS was replaced by dextran-coated charcoal-treated FBS. For gene expression analyses, 0.3 × 10^6 LS174T cells were seeded per well of a 12-well plate. The next day, chemical treatment was initiated for 48–72 h, with daily medium change.
Total RNA was prepared from LS174T and HepaRG cells using the NucleoSpin RNA kit (Macherey-Nagel, Düren, Germany). RNA integrity was analyzed by formaldehyde-agarose gel electrophoresis. First strand cDNA was synthesized as described earlier [37]. Relative quantification analyses were conducted with TaqMan RT-PCR utilizing the BioMark HD system and FLEX Six Gene Expression Integrated Fluidic Circuits (Fluidigm, South San Francisco, CA, USA) as described previously [34]. TaqMan gene expression assays were either the commercially available predesigned assays Hs00184500_m1 (ABCB1) and Hs00604506_m1 (CYP3A4) (Thermo Fischer Scientific) or have been described previously: CYP2B6 [31] and 18S rRNA [39]. Data were analyzed as described previously [37]. Gene expression levels were normalized to respective 18S rRNA levels.

Structure (SMILES)	effect on rifampicin-dependent recruitment of SRC1 by PXR [1]	induction of interaction of PXR with coactivator SRC1 [1]	suppression of constitutive activity of CAR1 (CAR1)	activation of CAR3 on their own (CAR3; HepG2, 10 µM)	impairment of ligand-induced activation of CAR3 by CITCO (CAR3)	activation of VDR on their own (VDR; HepG2, 10 µM)	reduction of ligand-induced VDR activation (VDR)	expression of CYP3A4 mRNA (CYP3A4)	activation of CAR1 (CAR1)	activation of CAR3, % of the effect of CITCO (CAR3; HepG2, 10 µM)	activation of VDR, % of the effect of 1α,25-dihydroxy vitamin D3 (VDR; HepG2, 10 µM)
O=C(Cc1ccccc1)Nc1ccc(F)c(Nc2ccc3c(c2)CCCCC3=O)c1 [Compound 100]	abrogated the rifampicin-dependent recruitment of SRC1 by PXR	did not induce any interaction of PXR with coactivator SRC1	30%	Neither CAR3 nor VDR were activated	no respective effects	Neither CAR3 nor VDR were activated	no respective effects	induced CYP3A4 expression, which was comparable to induction by rifampicin	–	–	–
Cc1ccc(NC(=O)Cc2ccccc2)cc1Nc1ccc2c(c1)CCCCC2=O [Compound 73]	abrogated the rifampicin-dependent recruitment of SRC1 by PXR	did not induce any interaction of PXR with coactivator SRC1	30%	Neither CAR3 nor VDR were activated	46%	Neither CAR3 nor VDR were activated	51%	induced CYP3A4 expression, which was comparable to induction by rifampicin	–	–	–
O=C(Nc1ccc(F)c(Nc2ccc3c(c2)CCCCC3=O)c1)c1cccc(F)c1 [Compound 109]	–	interaction with SRC1 was induced	–	–	–	–	–	induced both genes	did not reach statistical significance	12%	5%
